According to patent publication US20120196766A1, “Therapeutic Use of Farnesyltransferase Inhibitors and Methods of Monitoring the Efficacy Thereof” (priority 2004, published 2012):

What was measured:
[1] = test system: dextran sodium sulphate-induced colitis; conditions: WO 02/43733; cited from earlier work
[2] = cited from earlier work
THP-1 cells = assay: cDNA microarray analysis of LPS-induced gene transcription in THP-1 cells; format: cell-based, Human; conditions: LPS 100 ng/ml, tipifarnib 5 μM
Method: THP-1 cells were cultured in RPMI1640 medium, supplemented with 10% FBS/100 units/ml Penicillin/10 μg/ml Streptomycin at 37° C., under 5% CO2. […] For the untreated control group (no LPS, no compound) and LPS alone group, equivalent volumes of DMSO were added to the medium. Cells were cultured at 37° C. and pellets were collected at 0 hr, 1 hr, 3 hr, 6 hr, 12 hr & 24 hr. Cell pellets were stored at −80° C. if RNA isolation was not conducted immediately. For experiments to study cytokine secretion in culture supernatants, THP-1 cells were washed twice with PBS, resuspended at 3.4×10^5/ml and cultured in 96-well plates at 250 μL, per well at 37° C. […] Supernatants were collected at different time points as indicated in the figures and were kept at ≦−20° C. until analysis of cytokine production.
Total RNA was isolated using RNeasy mini kit from QIAGEN (Valencia, Calif.) according to the manufacturer's instructions. RNA samples were stored at −80° C.
Five μg of total RNA was linearly amplified to double-stranded cDNA using T7-based amplification. The cDNA was purified using the QIAquick 96 PCR purification kit (QIAGEN Valencia, Calif.), and used to generate amplified (a) RNA using AmpliScribe™ T7 High Yield Transcription Kit (Epicentre, Madison, Wis.). Ten μg of purified aRNA was reverse transcribed to cDNA using the SuperScript RTII kit (Invitrogen) and labeled by direct incorporation of Cy3-dCTP. The generated cDNA probe was used for hybridizing to cDNA microarrays.
Each clone was spotted in duplicate on the array.

## Cn1cncc1C(N)(c1ccc(Cl)cc1)c1ccc2c(c1)c(-c1cccc(Cl)c1)cc(=O)n2C (single isomer, unassigned; (+)) [tipifarnib, (+)-6-[amino(4-chlorophenyl)(1-methyl-1H-imidazol-5-yl)methyl]-4-(3-chlorophenyl)-1-methyl-2(1H)-quinolinone]
[1]
  disease scores: reduction of disease scores
[2]
  protein binding: highly protein-bound
THP-1 cells; 1 hr
  Fold-change (tipifarnib/LPS vs LPS) ABCB8: 1.07
  Fold-change (tipifarnib/LPS vs LPS) B2M: 1.15
  Fold-change (tipifarnib/LPS vs LPS) C3AR1: 1.00
  Fold-change (tipifarnib/LPS vs LPS) CCL2: −1.07
  Fold-change (tipifarnib/LPS vs LPS) CCL3: −1.07
  Fold-change (tipifarnib/LPS vs LPS) CCL4: 1.07
  Fold-change (tipifarnib/LPS vs LPS) CCL8: −1.07
  Fold-change (tipifarnib/LPS vs LPS) CCND1: 1.00
  Fold-change (tipifarnib/LPS vs LPS) CXCL11: 1.00
  Fold-change (tipifarnib/LPS vs LPS) GNPNAT1: 1.00
  Fold-change (tipifarnib/LPS vs LPS) IER3: 1.32
  Fold-change (tipifarnib/LPS vs LPS) IFI16: 1.07
  Fold-change (tipifarnib/LPS vs LPS) IFIT1: 1.00
  Fold-change (tipifarnib/LPS vs LPS) IFNB1: −1.23
  Fold-change (tipifarnib/LPS vs LPS) IGFBP3: 1.00
  Fold-change (tipifarnib/LPS vs LPS) IL1B: 1.07
  Fold-change (tipifarnib/LPS vs LPS) IL1RN: −1.15
  Fold-change (tipifarnib/LPS vs LPS) IL8: −1.07
  Fold-change (tipifarnib/LPS vs LPS) KCNK17: −1.07
  Fold-change (tipifarnib/LPS vs LPS) LAP3: −1.07
  Fold-change (tipifarnib/LPS vs LPS) LGR7: 1.23
  Fold-change (tipifarnib/LPS vs LPS) MMP9: −1.07
  Fold-change (tipifarnib/LPS vs LPS) MX1: 1.00
  Fold-change (tipifarnib/LPS vs LPS) MYD88: 1.07
  Fold-change (tipifarnib/LPS vs LPS) NEXN: 1.00
  Fold-change (tipifarnib/LPS vs LPS) NFKB2: −1.07
  Fold-change (tipifarnib/LPS vs LPS) PLAUR: 1.00
  Fold-change (tipifarnib/LPS vs LPS) PTX3: 1.15
  Fold-change (tipifarnib/LPS vs LPS) S100A9: 1.00
  Fold-change (tipifarnib/LPS vs LPS) STAT1: 1.23
  Fold-change (tipifarnib/LPS vs LPS) TAP1: −1.23
  Fold-change (tipifarnib/LPS vs LPS) TAP2: 1.07
  Fold-change (tipifarnib/LPS vs LPS) TRIM22: 1.00
  Fold-change (tipifarnib/LPS vs LPS) UBE2L6: 1.00
THP-1 cells; 3 hr
  Fold-change (tipifarnib/LPS vs LPS) ABCB8: 1.00
  Fold-change (tipifarnib/LPS vs LPS) B2M: 1.00
  Fold-change (tipifarnib/LPS vs LPS) C3AR1: 1.07
  Fold-change (tipifarnib/LPS vs LPS) CCL2: −1.32
  Fold-change (tipifarnib/LPS vs LPS) CCL3: 1.00
  Fold-change (tipifarnib/LPS vs LPS) CCL8: 1.00
  Fold-change (tipifarnib/LPS vs LPS) CCND1: −1.07
  Fold-change (tipifarnib/LPS vs LPS) CXCL11: −1.07
  Fold-change (tipifarnib/LPS vs LPS) GNPNAT1: 1.00
  Fold-change (tipifarnib/LPS vs LPS) IFI16: 1.00
  Fold-change (tipifarnib/LPS vs LPS) IFIT1: 1.00
  Fold-change (tipifarnib/LPS vs LPS) IFNB1: −1.15
  Fold-change (tipifarnib/LPS vs LPS) IGFBP3: −1.07
  Fold-change (tipifarnib/LPS vs LPS) IL1B: 1.32
  Fold-change (tipifarnib/LPS vs LPS) IL1RN: −1.15
  Fold-change (tipifarnib/LPS vs LPS) IL8: −1.23
  Fold-change (tipifarnib/LPS vs LPS) KCNK17: −1.15
  Fold-change (tipifarnib/LPS vs LPS) LAP3: −1.07
  Fold-change (tipifarnib/LPS vs LPS) LGR7: −1.15
  Fold-change (tipifarnib/LPS vs LPS) LY6E: −1.15
  Fold-change (tipifarnib/LPS vs LPS) MMP9: −1.07
  Fold-change (tipifarnib/LPS vs LPS) MX1: −1.07
  Fold-change (tipifarnib/LPS vs LPS) MYD88: −1.15
  Fold-change (tipifarnib/LPS vs LPS) NEXN: 1.00
  Fold-change (tipifarnib/LPS vs LPS) NFKB2: 1.23
  Fold-change (tipifarnib/LPS vs LPS) PLAUR: −1.23
  Fold-change (tipifarnib/LPS vs LPS) PTX3: −1.15
